Here are results for 4 compounds from patent US20240000747A1, “SIRTUIN 6 ACTIVATOR” (DAICEL CORPORATION, priority 2020, published 2024).

The test concerns human SIRT6 promoter. Description: SIRT6 promoter activity in Caco-2-SIRT6p-EGFP reporter cells. The class given is cell-based. The conditions noted are these: Caco-2-SIRT6p-EGFP cells, 10 μM test component, two days after addition, EGFP fluorescence, relative ratio to control (PBS); FIG. 1. From the text: The human SIRT6 promoter region (from −1105 to −1 bp; SEQ ID NO: 1) was amplified by PCR using KOD FX (TOYOBO, Tokyo, Japan) with genomic DNA derived from human fetal fibroblast TIG-1 as a template. Primers used were obtained by adding restriction endonuclease recognition sequences of AseI and NheI to the ends based on the reported base sequence information of the hSIRT6 promoter. Specifically, […] designed as SIRT6p-AseI ([…]: SEQ ID NO: 2) and SIRT6p-NheI ([…]: SEQ ID NO: 3) were used. KOD FX (TOYOBO) was used as the DNA polymerase, and PCR was performed under reaction conditions of 40 cycles with one cycle of 94° C. for 2 minutes, 98° C. for 10 seconds, and 68° C. for 1 minute.
The SIRT6 promoter fragment obtained by PCR was TA-cloned into a pGEM-T Easy Vector (Promega Corporation). In addition, the base sequence was confirmed by sequencing. The SIRT6 promoter fragment incorporated into the pGEM-T Easy vector was excised by digestion with restriction enzymes AseI and NheI and inserted into a site of EGFP-C3 (available from Takara Bio Inc.) from which the CMV promoter had been removed by AseI and NheI digestion, and pSIRT6p-EGFP was obtained.
Transfection was performed using HilyMax available from DOJINDO in accordance with its protocol. On the day before transfection, 6.0×10^5 cells of Caco-2 cells (human colon cancer-derived cells; obtained from RIKEN BioResource Research Center) were seeded in a 5-mL dish. On the day of transfection, pSIRT6p-EGFP (15 μg) was diluted with DMEM medium containing 10% FBS to a volume of 300 μL in a 1.5-mL tube, then 70 μL of Hilymax was added to the tube, and the mixture was incubated at room temperature for 20 minutes. Thereafter, the whole amount was added to Caco-2 cells and cultured for 48 hours.
Based on the fact that pSIRT6p-EGFP is resistant to the drug G418 (available from Wako Pure Chemical Industries, Ltd.), drug selection was performed by adding the drug G418 to transfected cells to a final concentration of 800 μg/mL. The culture medium was replaced with a fresh culture medium every 3 days, and G418 was added at the same concentration each time. Caco-2-SIRT6p-EGFP cells were obtained from this.
Using Caco-2-SIRT6p-EGFP cells, a urolithin was examined for its enhancing effect on the promoter of the sirtuin 6 gene SIRT6. […]
Caco-2-SIRT6p-EGFP cells were seeded in a 96-well plate at 0.6×10^4 cells/well. […] This was followed by aspiration and addition of 100 μL of PBS to each well, and the fluorescence intensity was measured with an IN Cell Analyzer 1000 (GE-Healthcare, Amersham Place, UK). The promoter activity was expressed as a relative ratio to the control activity.
Regarding `O=C1OC[C@H]2OC(O)[C@H](O)[C@@H](O)[C@@H]2OC(=O)c2cc(O)c(O)c(O)c2-c2c(O)c(O)c3oc(=O)c4c(c(O)c(O)c5oc(=O)c2c3c54)-c2c1cc(O)c(O)c2O` (mixture of isomers) [punicalin], the “relative SIRT6 promoter activity (SIRT6 promoter-enhancing activity)” value (from here on “relative SIRT6 promoter activity”) was “no or little SIRT6 promoter-enhancing activity”.

For `C[C@@]12CCc3occc3[C@H]1CC[C@@]13C[C@@H](CC[C@H]12)[C@@](O)(CO)C3` [cafestol], the “relative SIRT6 promoter activity” value is given as “no or little SIRT6 promoter-enhancing activity”.

For the compound `O=c1oc2cc(O)ccc2c2ccc(O)cc12` [urolithin A], the “relative SIRT6 promoter activity” value is listed as “strong SIRT6 promoter-enhancing activity”.

Regarding puricalagin, the “relative SIRT6 promoter activity” value is “no or little SIRT6 promoter-enhancing activity”.
